The NIST ThermoML archive (doi:10.1021/acs.jced.5b00348)
“And” between values parts separate entries of the source, which are not always exact repeats. Equal entries are not always repeated.

Settings: for vapor or sublimation pressure: Liquid, Closed cell (Static) method

FC(F)(F)/C=C/Cl [(E)-1-chloro-3,3,3-trifluoroprop-1-ene]
Settings	mass density	speed of sound
419.56 K, 196.42 kPa, Gas	–	165.91 m/s
419.56 K, 196.56 kPa, Gas	–	165.91 m/s and 165.91 m/s
419.57 K, 196.49 kPa, Gas	–	165.9 m/s and 165.9 m/s
419.57 K, 196.51 kPa, Gas	–	165.9 m/s
419.57 K, 196.56 kPa, Gas	–	165.9 m/s
419.57 K, 196.57 kPa, Gas	–	165.9 m/s
419.57 K, 196.62 kPa, Gas	–	165.9 m/s
419.57 K, 196.63 kPa, Gas	–	165.91 m/s
419.58 K, 196.44 kPa, Gas	–	165.9 m/s
419.58 K, 196.51 kPa, Gas	–	165.9 m/s
419.58 K, 398.05 kPa, Gas	–	162.39 m/s
419.58 K, 398.07 kPa, Gas	–	162.39 m/s
419.58 K, 398.08 kPa, Gas	–	162.39 m/s
419.59 K, 803.55 kPa, Gas	–	154.82 m/s
419.59 K, 803.59 kPa, Gas	–	154.82 m/s
419.59 K, 803.61 kPa, Gas	–	154.82 m/s
419.59 K, 1212.4 kPa, Gas	–	146.32 m/s
419.6 K, 1212.4 kPa, Gas	–	146.32 m/s
419.6 K, 1723.5 kPa, Gas	–	133.88 m/s and 133.89 m/s
419.61 K, 2072 kPa, Gas	–	123.58 m/s
419.61 K, 2072.1 kPa, Gas	–	123.58 m/s
419.62 K, 2072.1 kPa, Gas	–	123.58 m/s
419.63 K, 2072.3 kPa, Gas	–	123.59 m/s
419.65 K, 2072.5 kPa, Gas	–	123.6 m/s
419.67 K, 2072.7 kPa, Gas	–	123.61 m/s
419.68 K, 2072.8 kPa, Gas	–	123.62 m/s
419.69 K, 2072.8 kPa, Gas	–	123.62 m/s
419.69 K, 2072.9 kPa, Gas	–	123.63 m/s
419.9 K, 1457.6 kPa, Gas	67.627 kg/m3	–
419.92 K, 1771.2 kPa, Gas	87.947 kg/m3	–
419.94 K, 4667.5 kPa, Fluid (supercritical or subcritical phases)	898.26 kg/m3	–
419.95 K, 2831.8 kPa, Fluid (supercritical or subcritical phases)	841.35 kg/m3	–
419.99 K, 510 kPa, Gas	20.295 kg/m3	–
420 K, 508.9 kPa, Gas	20.248 kg/m3	–
420 K, 645.1 kPa, Gas	26.148 kg/m3 and 26.149 kg/m3	–
424.94 K, 3746.2 kPa, Fluid (supercritical or subcritical phases)	841 kg/m3	–
429.9 K, 1513.1 kPa, Gas	67.627 kg/m3	–
429.9 K, 1847.8 kPa, Gas	87.931 kg/m3	–
429.94 K, 3475.7 kPa, Fluid (supercritical or subcritical phases)	782.51 kg/m3	–
429.94 K, 4675.4 kPa, Fluid (supercritical or subcritical phases)	840.63 kg/m3	–
430 K, 530.5 kPa, Gas	20.558 kg/m3	–
430 K, 669.6 kPa, Gas	26.403 kg/m3	–
434.94 K, 4229.4 kPa, Fluid (supercritical or subcritical phases)	782.14 kg/m3	–
439.89 K, 1922.8 kPa, Gas	87.898 kg/m3	–
439.9 K, 1568.8 kPa, Gas	67.676 kg/m3	–
439.95 K, 1137.4 kPa, Gas	46.158 kg/m3	–
439.95 K, 1568.5 kPa, Gas	67.645 kg/m3	–
440 K, 255.4 kPa, Gas	9.339 kg/m3	–
440 K, 550.9 kPa, Gas	20.806 kg/m3	–
440 K, 551.6 kPa, Gas	20.832 kg/m3	–
440 K, 694.2 kPa, Gas	26.651 kg/m3	–
440 K, 694.3 kPa, Gas	26.653 kg/m3	–
443.94 K, 475.9 kPa, Fluid (supercritical or subcritical phases)	17.642 kg/m3	–
443.94 K, 547.2 kPa, Fluid (supercritical or subcritical phases)	20.44 kg/m3	–
443.94 K, 1352.4 kPa, Fluid (supercritical or subcritical phases)	55.612 kg/m3	–
443.94 K, 1768.1 kPa, Fluid (supercritical or subcritical phases)	77.205 kg/m3	–
443.94 K, 2074.3 kPa, Fluid (supercritical or subcritical phases)	95.28 kg/m3	–
443.94 K, 2390.8 kPa, Fluid (supercritical or subcritical phases)	116.63 kg/m3	–
443.94 K, 2690.9 kPa, Fluid (supercritical or subcritical phases)	140.42 kg/m3	–
443.94 K, 2893.8 kPa, Fluid (supercritical or subcritical phases)	159.35 kg/m3	–
443.94 K, 3102.5 kPa, Fluid (supercritical or subcritical phases)	182.38 kg/m3	–
443.94 K, 3197.9 kPa, Fluid (supercritical or subcritical phases)	194.61 kg/m3	–
443.94 K, 3199.8 kPa, Fluid (supercritical or subcritical phases)	194.61 kg/m3	–
443.94 K, 3703.8 kPa, Fluid (supercritical or subcritical phases)	306.77 kg/m3	–
443.94 K, 3908.6 kPa, Fluid (supercritical or subcritical phases)	504.42 kg/m3	–
443.95 K, 3858 kPa, Fluid (supercritical or subcritical phases)	426.27 kg/m3	–
443.95 K, 4009.4 kPa, Fluid (supercritical or subcritical phases)	593.8 kg/m3	–
443.95 K, 4514.9 kPa, Fluid (supercritical or subcritical phases)	704.98 kg/m3	–
443.95 K, 5618.8 kPa, Fluid (supercritical or subcritical phases)	781.53 kg/m3	–

Settings	vapor or sublimation pressure [kPa]
420 K	2589.3
424.98 K	2823.8
429.91 K	3073.2
429.98 K	3076.8
434.91 K	3346
434.97 K	3349.8
435.91 K	3403.5
437.91 K	3521
